From PMC3838641 (Biochemistry, 2013)
pKd: −log10 of the molar value.

Tests used:
[1] = target: T1, orotidine 5'-monophosphate decarboxylase (ScOMPDC) (Saccharomyces cerevisiae, UniProt P03962, R235A); test: UV decarboxylation kinetics of truncated substrate; type: biochemical
T1 sequence (P03962 2-267 R235A): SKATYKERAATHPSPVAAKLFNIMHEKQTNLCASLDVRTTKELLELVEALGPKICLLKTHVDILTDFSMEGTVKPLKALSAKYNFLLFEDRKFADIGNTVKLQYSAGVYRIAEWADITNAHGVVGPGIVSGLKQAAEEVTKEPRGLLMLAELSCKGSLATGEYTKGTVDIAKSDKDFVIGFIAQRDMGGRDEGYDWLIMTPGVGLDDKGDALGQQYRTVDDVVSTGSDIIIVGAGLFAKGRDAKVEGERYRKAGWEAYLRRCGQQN

[2] = target: T1, orotidine 5'-monophosphate decarboxylase (ScOMPDC)
[3] = target: T1, orotidine 5'-monophosphate decarboxylase (ScOMPDC); test: […] NMR deuterium exchange kinetics with purified enzyme, Michaelis-Menten fit; type: biochemical

O=C(O)c1c(F)c(=O)[nH]c(=O)n1[C@@H]1OC[C@@H](O)[C@H]1O [FEO, 1-(β-D-erythrofuranosyl)-5-fluoroorotic acid]
FEO + HPO3^2- / (kcat/Km)E [1]: 12 M⁻¹ s⁻¹

O=[PH](O)O [HPO3^2−, phosphite dianion]
FEO + HPO3^2- / (kcat/Km)E•HPi/Kd (M^-2 s^-1) [2]: 250 ± 15 M^−2 s^−1

O=c1[nH]c(=O)n([C@@H]2O[C@H](COP(=O)(O)O)[C@@H](O)[C@H]2O)cc1F [h-FUMP, 5-fluorouridine 5'-monophosphate]
pKd [3]: 2.30
